# In paper PMC4907692, “Engineering vanilloid-sensitivity into the rat TRPV2 channel” (eLife, 2016):
# Where two headings read alike, the source gives them in different places.
# How the values were obtained:
# [1] = target: T1, TRPV2 triple mutant that retained F472 (Rattus norvegicus, UniProt Q9WUD2, L507M/L510T/Q530E); assay: Two-electrode voltage-clamp in Xenopus oocytes, TRPV2 triple mutant retaining F472; type: cell-based; details: 100 nM RTx, +60 mV, normalized to 4 mM 2-APB
# T1 construct: expressed in transfected cells; host or cells: Xenopus oocytes (cRNA injection)
# T1 sequence (Q9WUD2 whole entry L507M/L510T/Q530E): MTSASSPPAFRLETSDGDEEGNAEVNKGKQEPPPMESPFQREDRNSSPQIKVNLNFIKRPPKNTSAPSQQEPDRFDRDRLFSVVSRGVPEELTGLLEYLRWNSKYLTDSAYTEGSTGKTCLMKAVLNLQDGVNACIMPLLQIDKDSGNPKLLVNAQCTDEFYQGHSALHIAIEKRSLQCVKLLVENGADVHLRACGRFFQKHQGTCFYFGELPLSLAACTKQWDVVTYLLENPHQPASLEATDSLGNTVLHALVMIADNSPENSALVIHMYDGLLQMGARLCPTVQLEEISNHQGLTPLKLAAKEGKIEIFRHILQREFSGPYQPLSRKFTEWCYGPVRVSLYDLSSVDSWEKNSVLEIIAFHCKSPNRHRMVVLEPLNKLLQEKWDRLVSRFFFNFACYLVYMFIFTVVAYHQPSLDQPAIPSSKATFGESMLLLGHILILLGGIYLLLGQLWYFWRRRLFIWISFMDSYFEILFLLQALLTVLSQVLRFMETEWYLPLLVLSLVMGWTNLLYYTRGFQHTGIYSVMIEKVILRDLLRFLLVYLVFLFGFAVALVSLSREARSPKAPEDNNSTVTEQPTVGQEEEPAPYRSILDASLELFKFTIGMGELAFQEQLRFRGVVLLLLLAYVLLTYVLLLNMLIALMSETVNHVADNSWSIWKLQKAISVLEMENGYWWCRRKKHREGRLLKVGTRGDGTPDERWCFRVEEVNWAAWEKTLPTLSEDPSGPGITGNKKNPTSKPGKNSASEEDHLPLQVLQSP
# Source text: (§1) To further investigate the putative vanilloid binding pocket in TRPV1, we inspected the cryo-EM structure of TRPV1, looking for residues that are located nearby to the putative RTx density (Figure 1B; regions/residues highlighted in yellow) and that differ between TRPV1 and TRPV2 channels (Figure 3—figure supplement 1; regions highlighted in magenta). […] To quantify the contribution of each of these residues to TRPV1 channel activation by RTx under our experimental conditions, we mutated each to the corresponding residue in TRPV2. We then expressed each construct in oocytes and used the two electrode voltage-clamp technique to study activation by RTx and by the non-specific TRPV channel activator 2-APB. We recorded time courses for channel activation by each agonist while stepping the membrane potential from −60 to +60 mV every 3 s from a holding potential of 0 mV using an external recording solution containing 100 mM KCl (internal K^+ concentration in a healthy oocyte is 100 mM) (Figure 3A, left). We also recorded current-voltage (I-V) relations by stepping over a wider range of voltages in the absence and presence of activators, or in the presence of ruthenium red (RR), a non-specific inhibitor of TRP channels (Figure 3A, right). […]
# [2] = target: T2, TRPV1 Y511A (dual GFP- and His-tagged) (Rattus norvegicus, UniProt O35433, Y511A); assay: 3H-RTx binding to intact S. cerevisiae cells expressing TRPV1 Y511A; details: 37°C, Figure 1F
# T2 construct: expressed in transfected cells; host or cells: Saccharomyces cerevisiae (intact cells)
# T2 sequence (O35433 whole entry Y511A): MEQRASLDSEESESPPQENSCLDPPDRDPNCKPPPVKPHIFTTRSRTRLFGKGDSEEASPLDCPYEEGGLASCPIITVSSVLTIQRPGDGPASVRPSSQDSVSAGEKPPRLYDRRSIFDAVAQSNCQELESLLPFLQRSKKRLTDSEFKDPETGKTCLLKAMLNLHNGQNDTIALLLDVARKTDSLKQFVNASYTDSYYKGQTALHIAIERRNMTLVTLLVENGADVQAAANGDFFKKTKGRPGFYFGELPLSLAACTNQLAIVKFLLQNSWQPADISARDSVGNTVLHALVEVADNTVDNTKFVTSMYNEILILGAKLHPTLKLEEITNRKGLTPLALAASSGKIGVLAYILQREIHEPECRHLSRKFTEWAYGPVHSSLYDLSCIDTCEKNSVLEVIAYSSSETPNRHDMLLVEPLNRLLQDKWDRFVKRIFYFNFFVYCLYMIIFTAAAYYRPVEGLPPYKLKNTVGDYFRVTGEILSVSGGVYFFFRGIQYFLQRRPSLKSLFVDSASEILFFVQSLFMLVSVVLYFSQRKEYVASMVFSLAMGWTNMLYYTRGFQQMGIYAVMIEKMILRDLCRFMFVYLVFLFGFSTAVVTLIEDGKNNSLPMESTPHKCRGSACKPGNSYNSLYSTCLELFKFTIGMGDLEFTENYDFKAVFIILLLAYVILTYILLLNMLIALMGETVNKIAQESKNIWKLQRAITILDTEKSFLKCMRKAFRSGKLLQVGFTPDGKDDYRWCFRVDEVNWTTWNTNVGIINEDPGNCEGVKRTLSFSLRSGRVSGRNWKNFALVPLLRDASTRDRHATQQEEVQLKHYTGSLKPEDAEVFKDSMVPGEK
# Method: (§2) To evaluate whether these constructs were competent to bind vanilloids, we initially measured the binding of [^3H]-RTx ([Szallasi and Blumberg, 1999]; [Szallasi et al., 1999]) to intact yeast cells expressing each of the constructs.
# (§3) S. cerevisiae cells overexpressing TRPV1 constructs to be used in ligand binding assays on intact cells (Figure 1E,F) were grown as for small scale expression trials. 24 hr after protein induction cells were spun down at 4000g, the supernatant was removed and the pellet resuspended in 1x PBS, normalizing OD600 to 75 for each sample, and aliquoted for storage at -80°C. ^3H-RTx binding assays on cells were performed at 37°C as previously described ([Feng et al., 2015]), but where non-specific binding of RTx was measured using cells expressing GFP alone. The binding of RTx to TRPV1 and TRPV2 in membranes (e.g. Figure 2A,B and 5C) was performed at 37°C unless otherwise stated using membranes prepared from large scale protein preparations of S. cerevisiae containing rat TRPV1 and TRPV2 with a 1D4 tag expressed using a constitutive promoter as in [Moiseenkova-Bell et al., 2008]. Data for binding of RTx to membranes was corrected for non-specific binding, determined using either excess non-radioactive ligand or heat inactivation of the protein, as previously described ([Feng et al., 2015]). […]
# [3] = target: T3, TRPV2 F472S/L507M (Rattus norvegicus, UniProt Q9WUD2, F472S/L507M); assay: Two-electrode voltage-clamp in Xenopus oocytes, TRPV2 F472S/L507M; type: cell-based; details: 100 nM RTx
# T3 construct: expressed in transfected cells; host or cells: Xenopus oocytes (cRNA injection)
# T3 sequence (Q9WUD2 whole entry F472S/L507M): as the sequence (Q9WUD2 whole entry L507M/L510T/Q530E) above, with F472S, T510L, E530Q counted along it
# Source text: as §1
# [4] = target: T4, TRPV2 F472S/L510T (Rattus norvegicus, UniProt Q9WUD2, F472S/L510T); assay: Two-electrode voltage-clamp in Xenopus oocytes, TRPV2 F472S/L510T; type: cell-based; details: 100 nM RTx
# T4 construct: expressed in transfected cells; host or cells: Xenopus oocytes (cRNA injection)
# T4 sequence (Q9WUD2 whole entry F472S/L510T): as the sequence (Q9WUD2 whole entry L507M/L510T/Q530E) above, with F472S, M507L, E530Q counted along it
# Source text: as §1
# [5] = target: T5, full-length GFP-tagged TRPV1 (Rattus norvegicus, UniProt O35433); assay: 3H-RTx binding to intact S. cerevisiae cells expressing GFP-tagged TRPV1; details: 37°C; for Kd: read-out: Kd of 3H-RTx binding (Hill fit)
# T5 construct: Smooth function for full-length GFP-tagged TRPV1 is a fit of the Hill equation; expressed in transfected cells; host or cells: Saccharomyces cerevisiae (intact cells)
# T5 sequence (O35433 whole entry): as the sequence (O35433 whole entry Y511A) above, with A511Y counted along it
# Method: as §2
# S. cerevisiae cells overexpressing TRPV1 constructs to be used in ligand binding assays on intact cells (Figure 1E,F) were grown as for small scale expression trials. 24 hr after protein induction cells were spun down at 4000g, the supernatant was removed and the pellet resuspended in 1x PBS, normalizing OD600 to 75 for each sample, and aliquoted for storage at -80°C. ^3H-RTx binding assays on cells were performed at 37°C as previously described ([Feng et al., 2015]), but where non-specific binding of RTx was measured using cells expressing GFP alone. The binding of RTx to TRPV1 and TRPV2 in membranes (e.g. Figure 2A,B and 5C) was performed at 37°C unless otherwise stated using membranes prepared from large scale protein preparations of S. cerevisiae containing rat TRPV1 and TRPV2 with a 1D4 tag expressed using a constitutive promoter as in [Moiseenkova-Bell et al., 2008]. Data for binding of RTx to membranes was corrected for non-specific binding, determined using either excess non-radioactive ligand or heat inactivation of the protein, as previously described ([Feng et al., 2015]). The TRPV1-activating double-knot toxin (DkTx) was produced recombinantly, folded in vitro and purified as previously described ([Bae et al., 2012]). Yeast membranes were incubated with DkTx solution for 1 hr at 4°C with gentle agitation prior to undertaking RTx binding assays.
# [6] = system: TRPV2 triple mutants containing the F472S mutation; assay: Two-electrode voltage-clamp in Xenopus oocytes, TRPV2 triple mutants containing F472S; type: cell-based, rat; details: 100 nM RTx, +60 mV, normalized to 4 mM 2-APB
# Source text: as §1
# [7] = target: T6, N-terminus His-tagged TRPV1 (without GFP) (Rattus norvegicus, UniProt O35433); assay: 3H-RTx binding to intact S. cerevisiae cells expressing His-tagged TRPV1; details: 37°C, Figure 1F
# T6 construct: expressed in transfected cells; host or cells: Saccharomyces cerevisiae (intact cells)
# T6 sequence (O35433 whole entry): as the sequence (O35433 whole entry Y511A) above, with A511Y counted along it
# Method: as §2, §3
# [8] = target: T7, WT TRPV1 (Rattus norvegicus, UniProt O35433); assay: Two-electrode voltage-clamp in Xenopus oocytes, WT TRPV1; type: cell-based; details: 100 nM RTx, +60 and -60 mV
# T7 construct: expressed in transfected cells; host or cells: Xenopus oocytes (cRNA injection, pGEM-HE)
# T7 sequence (O35433 whole entry): as the sequence (O35433 whole entry Y511A) above, with A511Y counted along it
# Source text: To further investigate the putative vanilloid binding pocket in TRPV1, we inspected the cryo-EM structure of TRPV1, looking for residues that are located nearby to the putative RTx density (Figure 1B; regions/residues highlighted in yellow) and that differ between TRPV1 and TRPV2 channels (Figure 3—figure supplement 1; regions highlighted in magenta). […] To quantify the contribution of each of these residues to TRPV1 channel activation by RTx under our experimental conditions, we mutated each to the corresponding residue in TRPV2. We then expressed each construct in oocytes and used the two electrode voltage-clamp technique to study activation by RTx and by the non-specific TRPV channel activator 2-APB. We recorded time courses for channel activation by each agonist while stepping the membrane potential from −60 to +60 mV every 3 s from a holding potential of 0 mV using an external recording solution containing 100 mM KCl (internal K^+ concentration in a healthy oocyte is 100 mM) (Figure 3A, left). We also recorded current-voltage (I-V) relations by stepping over a wider range of voltages in the absence and presence of activators, or in the presence of ruthenium red (RR), a non-specific inhibitor of TRP channels (Figure 3A, right).
# The WT rat TRPV1 and TRPV2 channels in the pcDNA3.1 vector were kindly provided by Dr. David Julius (UCSF) ([Caterina et al., 1997]; [Caterina et al., 1999]) and subcloned into the pGEM-HE vector ([Liman et al., 1992]). Mutations were introduced into rTRPV1 using a two-step PCR mutagenesis technique and the resulting constructs were verified by sequencing. All channel constructs were expressed in Xenopus oocytes and studied following 1–4 days incubation after cRNA injection (incubated at 17°C in 96 mM NaCl, 2 mM KCl, 5 mM HEPES, 1 mM MgCl2 and 1.8 mM CaCl2, 50 μg/ml gentamycin, pH 7.6 with NaOH) using the two-electrode voltage-clamp recording technique (OC-725C, Warner Instruments, Hamden, CT) with a 150 μl recording chamber. Data were filtered at 1–3 kHz and digitized at 20 kHz using pClamp software (Molecular Devices, Sunnyvale, CA). […]
# [9] = read-out: Kd of 3H-RTx binding (Hill fit)
compound,measurement,setting,value
"C=C(C)[C@]12C[C@@H](C)[C@@]34O[C@](Cc5ccccc5)(O[C@@H]1[C@@H]3C=C(COC(=O)Cc1ccc(O)c(OC)c1)C[C@]1(O)C(=O)C(C)=C[C@@H]41)O2 [RTx, resiniferatoxin]",channel activation by RTx,[1],insensitive to RTx
same,Hill slope (nH),[2],1.1
same,Kd,[2]; [9],> 238 nM
same,channel activation by RTx,[3],sensitive to RTx
same,channel activation by RTx,[4],sensitive to RTx
same,Hill slope (nH),[5]; Figure 1E,0.78
same,Kd,[5]; Figure 1E,7 nM
same,Hill slope (nH),[5]; Figure 1F,0.82
same,Kd,[5]; Figure 1F,7.2 nM
same,channel activation by RTx,[6],sensitive to RTx
same,Hill slope (nH),[7],0.6
same,Kd,[7]; [9],30 nM
same,channel activation by RTx,[8],effectively irreversible activation
